According to patent US6410792B1, “Amide derivatives and methods for using the same as selective neuropeptide Y receptor antagonists” (Bayer Corporation, priority 1997, dated 2002):
Structures can show the parent of a compound that is named as a salt. Where two headings read alike, the source gives them in different places.

Key:
Human NPY1 receptor = target: T1, Human NPY1 receptor (Homo sapiens, UniProt P25929); experiment: Human NPY1 receptor binding assay ([125I]PYY, SK-N-MC cells); details: [125I]PYY, SK-N-MC cells; read-out: hNPYI IC50
T1 construct: host or cells: SK-N-MC cells
T1 sequence (P25929 1-384): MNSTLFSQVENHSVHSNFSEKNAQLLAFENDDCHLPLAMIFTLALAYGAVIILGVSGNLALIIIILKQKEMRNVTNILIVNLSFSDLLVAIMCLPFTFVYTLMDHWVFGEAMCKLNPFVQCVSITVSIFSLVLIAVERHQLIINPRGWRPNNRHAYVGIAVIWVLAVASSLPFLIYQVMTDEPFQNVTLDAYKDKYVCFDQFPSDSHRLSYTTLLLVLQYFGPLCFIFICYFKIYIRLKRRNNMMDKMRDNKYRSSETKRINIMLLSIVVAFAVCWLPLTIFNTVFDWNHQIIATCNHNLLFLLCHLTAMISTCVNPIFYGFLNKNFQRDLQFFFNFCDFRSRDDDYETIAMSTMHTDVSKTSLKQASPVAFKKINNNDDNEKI
Procedure: A. Human NPY1 Receptor Binding Assay
This is a modification of Gordon et al., (J. Neurochem. 55:506-513, 1990). SK-N-MC cell (ATCC, Rockville, Md.) were plated in 24-well plates. Once confluent, cells were rinsed with Dulbecco's phosphate buffered saline (DPBS). Cells were then preincubated in binding buffer containing serum-free DMEM, 25 mM HEPES (pH 7.3), 0.5% bovine serum albumin (BSA), 0.1% bacitracin and 0.1 mM phenylmethylsulfonylfluoride for 30 minutes at room temperature. Drug dilution and [125I]PYY (˜50 pM: NEN-DuPont) were added to the wells, and the cells were incubated for an additional 3 hours at room temperature, followed by rinsing with ice-cold DPBS. Nonspecific binding was defined with 1 μM NPY. After lysing the cells with 1% Triton X-100, the amount of radioactivity in the lysates was quantitated with a gamma counter.

Y2 receptor = target: T2, Y2 receptor (Homo sapiens, UniProt P49146); experiment: Y2 receptor binding assay ([125I]PYY, membrane protein); details: [125I]PYY, membrane protein; read-out: hNPY2 IC50
T2 sequence (P49146 1-381): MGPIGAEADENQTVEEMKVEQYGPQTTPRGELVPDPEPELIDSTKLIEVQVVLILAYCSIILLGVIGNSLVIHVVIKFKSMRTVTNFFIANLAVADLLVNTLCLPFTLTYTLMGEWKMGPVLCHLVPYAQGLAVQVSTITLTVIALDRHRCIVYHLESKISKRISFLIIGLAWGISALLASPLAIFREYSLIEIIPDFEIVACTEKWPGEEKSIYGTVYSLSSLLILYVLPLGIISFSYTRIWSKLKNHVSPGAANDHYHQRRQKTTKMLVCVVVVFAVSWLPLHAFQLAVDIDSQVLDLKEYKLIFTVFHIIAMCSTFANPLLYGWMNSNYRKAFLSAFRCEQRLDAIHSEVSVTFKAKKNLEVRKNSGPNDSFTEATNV
Procedure, shortened: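 Filtration binding with membrane protein and drug dilution, 2 h at room temperature with mixing, radioactivity counted by gamma or scintillation. Y2: 25 pM [125I]PYY in Krebs-Ringer bicarbonate pH 7.4 with 0.01% BSA, nonspecific by 1 μM NPY. Y4/PP1: 50 pM [125I]hPP in HEPES-buffered saline pH 7.4 with protease inhibitors and 0.3% BSA, nonspecific by 1 μM hPP.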

human Y4/PP1 receptor = human Y4/PP1 receptor (Homo sapiens, UniProt P50391); experiment: Human Y4/PP1 receptor binding assay ([125I]human PP, membrane protein); details: [125I]human PP, membrane protein; read-out: hNPY4 IC50
Procedure: B. Human Y2 and Y4/PP1 Receptor Binding Assays
Binding assays were performed on GF/C Millipore 96-well plates pretreated with 0.02% polyethylenimine. The binding buffer for rat Y2 binding is Krebs-Ringer bicarbonate (pH 7.4) containing 0.01% BSA and 0.005% bacitracin. Samples consist of membrane protein, 25 pM [1251]PYY and drug dilution. Nonspecific binding is defined by 1 μM NPY. The binding buffer for human Y4/PP1 binding consists of 137 mM NaCl, 5.4 mM KCl, 0.44 mM KH2PO4, 1.26 mM CaCl2, 0.81 mM MgSO4, 20 mM HEPES, 1 mM dithiothreitol, 0.1% bacitracin, 100 mg/l streptomycin sulfate, 1 mg/l aprotinin, 10 mg/ml soybean trypsin inhibitor and 0.3% BSA, pH 7.4. Samples consist of membrane protein, 50 pM human [1251]human PP (hPP: NEN DuPont, Boston, Mass.) and drug dilution. 1 μM hPP is used to define nonspecific binding.
After a 2 hour incubation at room temperature with constant mixing, the samples are aspirated on a vacuum manifold, and rinsed with ice-cold binding buffer. The amount of radioactivity in each well is quantitated with either gamma counting or liquid scintillation.

Human NPY5 receptor = target: T3, Human NPY5 receptor (Homo sapiens, UniProt Q15761); experiment: Human NPY5 receptor binding assay ([125I]PYY, membrane protein); details: read-out: hNPY5 IC50
T3 sequence (Q15761 1-445): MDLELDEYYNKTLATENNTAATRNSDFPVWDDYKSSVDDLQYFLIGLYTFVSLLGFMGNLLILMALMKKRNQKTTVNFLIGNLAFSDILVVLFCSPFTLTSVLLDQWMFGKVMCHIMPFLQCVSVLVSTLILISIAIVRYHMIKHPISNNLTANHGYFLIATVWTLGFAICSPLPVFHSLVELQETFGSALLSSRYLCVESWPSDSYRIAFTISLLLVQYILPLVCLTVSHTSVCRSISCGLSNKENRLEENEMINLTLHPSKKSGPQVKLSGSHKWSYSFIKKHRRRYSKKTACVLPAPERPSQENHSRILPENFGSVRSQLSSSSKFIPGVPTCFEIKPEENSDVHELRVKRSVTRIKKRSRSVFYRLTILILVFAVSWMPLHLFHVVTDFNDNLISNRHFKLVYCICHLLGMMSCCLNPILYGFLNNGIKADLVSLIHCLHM
Procedure, shortened: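 Filter binding with membrane protein and porcine [125I]PYY at 75-100 pM, 2 h at room temperature; nonspecific binding set by 1 μM PYY.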

Rat NPY5 receptor = target: T4, Rat NPY5 receptor (Rattus norvegicus, UniProt Q63634); experiment: Rat NPY5 receptor binding assay ([125I]PYY, membrane protein); details: read-out: rNPY5 IC50
T4 sequence (Q63634 1-445): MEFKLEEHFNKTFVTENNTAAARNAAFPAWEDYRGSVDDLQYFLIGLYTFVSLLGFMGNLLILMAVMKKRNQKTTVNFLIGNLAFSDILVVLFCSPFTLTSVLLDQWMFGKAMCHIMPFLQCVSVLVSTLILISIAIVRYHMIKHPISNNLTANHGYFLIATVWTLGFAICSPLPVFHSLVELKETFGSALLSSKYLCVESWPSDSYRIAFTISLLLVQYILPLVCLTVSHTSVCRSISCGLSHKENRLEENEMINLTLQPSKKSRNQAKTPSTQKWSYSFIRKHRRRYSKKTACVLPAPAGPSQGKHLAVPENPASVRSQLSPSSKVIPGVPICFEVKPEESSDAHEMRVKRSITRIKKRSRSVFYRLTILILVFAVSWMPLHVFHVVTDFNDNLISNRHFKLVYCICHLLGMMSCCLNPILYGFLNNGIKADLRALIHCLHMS
Procedure: C. Human and Rat NPY5 Receptor Binding Assays
Binding assays are performed on GF/C Millipore 96well plates pretreated with 0.02% polyethylenimine. The binding buffer is 25 mM Tris, 120 mM NaCl, 5 mM KCl, 1.2 mM KH2PO4, 2.5 mM CaCl2, 1.2 mM MgSO4, 0.1% BSA and 0.5 mg/ml bacitracin, pH 7.4. Samples consist of membrane protein, 75-100 pM [125I]PYY (porcine, NEN-DuPont) and drug dilution. Nonspecific binding is defined by 1 μM PYY. After a 2 hour incubation at room temperature with constant mixing, the samples are aspirated on a vacuum manifold, and rinsed with ice-cold binding buffer. The amount of radioactivity in each well is quantitated with either gamma counting or liquid scintillation.

Sequence of human Y4/PP1 receptor (P50391 whole entry): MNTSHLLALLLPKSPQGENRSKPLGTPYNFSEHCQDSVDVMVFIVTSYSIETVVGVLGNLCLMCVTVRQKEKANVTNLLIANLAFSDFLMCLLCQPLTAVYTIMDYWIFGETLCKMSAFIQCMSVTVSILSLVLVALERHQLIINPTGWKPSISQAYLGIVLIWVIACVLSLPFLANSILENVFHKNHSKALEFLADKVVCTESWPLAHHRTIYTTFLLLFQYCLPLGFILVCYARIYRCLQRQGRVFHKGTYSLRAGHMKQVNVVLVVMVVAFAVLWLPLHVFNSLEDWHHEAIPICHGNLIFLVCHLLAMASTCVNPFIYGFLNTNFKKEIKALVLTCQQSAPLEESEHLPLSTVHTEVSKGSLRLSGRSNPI

Compound | IC50 (Human NPY1 receptor) | IC50 (Y2 receptor) | IC50 (human Y4/PP1 receptor) | IC50 (Human NPY5 receptor; [125I]PYY) | IC50 (Rat NPY5 receptor; [125I]PYY) | IC50 (Human NPY5 receptor; [125I]PYY binding) | IC50 (Rat NPY5 receptor; [125I]PYY binding)
Cl.O=C(CN1CCC(n2c(=O)[nH]c3ccccc32)CC1)Nc1ccc(C(=O)C(=O)c2ccccc2)cc1 [Compound 265, 2-[4-(2-Oxo-2,3-dihydro-benzoimidazol-1-yl]-N-[4-(oxo-phenyl-acetyl)-phenyl]-acetamide; hydrochloride] | > 5000 nM | > 5000 nM | > 5000 nM | 5 nM | 5 nM |  | 
O=C(CN1CCC(n2c(=O)[nH]c3ccccc32)CC1)Nc1ccc(-c2cnco2)cc1 [Compound 267, N-(4-Oxazol-5-yl-phenyl)-2-[4-(2-oxo-2,3-dihydro-benzoimidazol-1-yl)-piperidin-1-yl]-acetamide; hydrate] | > 5000 nM | > 5000 nM | > 5000 nM | 150 nM | 150 nM |  | 
O=C(CNCCCn1c(=O)[nH]c2ccccc21)Nc1ccc(C2CCCCC2)cc1 [Compound 276, N-(4-Cyclohexyl-phenyl)-2-[3-(2-oxo-2,3-dihydro-benzoimidazol-1-yl)-propylamino]-acetamide] |  | > 5000 nM | > 5000 nM | 1100 nM |  |  | 
O=C(CN1CCC(n2c(=O)[nH]c3ccccc32)CC1)Nc1cccc(-c2ccccc2)c1 [Compound 323, N-Biphenyl-3-yl-2-[4-(2-oxo-2,3-dihydro-benzoimidazol-1-yl)-piperidin-1 yl]-acetamide; hydrochloride] | > 5000 nM |  | > 5000 nM | 26 nM | 26 nM |  | 
O=C(CN1CCC(n2c(=O)[nH]c3ccccc32)CC1)NC1CC2CCC1C2 (stereo not drawn) [Compound 326, N-Bicyclo[2.2.1]hept-2-yl-2-[4-(2-oxo-2,3-dihydro-benzoimidazol-1-yl)-piperidin-1-yl] acetamide] |  | > 5000 nM | > 5000 nM |  |  |  | 
COc1ccc(-c2ccccc2)cc1NC(=O)CN1CCC(n2c(=O)[nH]c3ccccc32)CC1 [Compound 328, N-(4-Methoxy-biphenyl-3-yl)-2-[4-(2-oxo-2,3-dihydro-benzoimidazol-1-yl)-piperidin-1-yl]-acetamide; hydrochloride] |  | > 5000 nM | > 5000 nM |  |  |  | 
Nc1ccccc1NC(=O)CN1CCC(n2c(=O)[nH]c3ccccc32)CC1 [Compound 331, N-(2-Amino-phenyl)-2-[4-(2-oxo-2,3-dihydro-benzoimidazol-1-yl)-piperidin-1-yl]-acetamide, reference compound] |  | > 5000 nM | > 5000 nM |  |  |  | 
O=C(CN1CCC(n2c(=O)[nH]c3ccccc32)CC1)NCc1ccc(F)cc1F [Compound 332, N-(2,4-Difluoro-benzyl)-2-[4-2(oxo-2,3-dihydro-benzoimidazol-1-yl)-piperidin-1-yl]-acetamide, reference compound] | > 5000 nM | > 5000 nM |  | 610 nM | 530 nM |  | 
COC(=O)c1cc(Cl)ccc1NC(=O)CN1CCC(n2c(=O)[nH]c3ccccc32)CC1 [Compound 333, 5-Chloro-2-{2-[4-(2-oxo-2,3-dihydro-benzoimidazol-1-yl)-piperidin 1-yl]-acetylamino}-benzoic acid methyl ester, reference compound] |  | > 5000 nM | > 5000 nM |  |  |  | 
NC(=O)c1cc(N)ccc1NC(=O)CN1CCC(n2c(=O)[nH]c3ccccc32)CC1 [Compound 334, 5-Amino-2-{2-[4-(2-oxo-2,3-dihydro-benzoimidazol-1-yl)piperidin 1-yl]-acetylamino}-benzamide, reference compound] |  | > 5000 nM | > 5000 nM |  |  |  | 
O=C(CN1CCC(n2c(=O)[nH]c3ccccc32)CC1)Nc1ccc(Nc2ccccc2)cc1 [Compound 337, 2-[4-(2-Oxo-2,3-dihydro-benzoimidazol-1-yl)-piperidin-1-yl]-N-(4-phenylamino-phenyl)-acetamide, reference compound] | > 5000 nM |  | > 5000 nM | 96 nM | 108 nM |  | 
O=C(CN1CCC(n2c(=O)[nH]c3ccccc32)CC1)Nc1cccc2ccc(O)cc12 [Compound 340, reference compound] | > 5000 nM | > 5000 nM | > 5000 nM | 227 nM |  |  | 
O=C(CN1CCOCC1)Nc1ccc(C2CCCCC2)cc1 [Compound 362, N-(4-Cyclohexyl-phenyl)-2-morpholin-4-yl-acetamide, reference compound] | > 5000 nM |  | > 5000 nM | 200 nM | 115 nM |  | 
N-{[(4-Cyclohexyl-phenylcarbamoyl)-methyl]-pyrrolidin-3-yl}-2,2,2-trifluoro-acetamide [Compound 197] |  |  |  |  |  | 21 nM | 20 nM
